This note sets out measurements from US9226501B2, “Pesticidal compositions and processes related thereto” (Dow AgroSciences LLC, priority 2012, dated 2016).

In test [1] the test system is Beet Armyworm (BAW) (spodoptera exigua). The test can be described thus: Bioassay on beet armyworm (BAW), 128-well diet tray assay. The test is classed as in vivo. The conditions noted are these: for pest or weed control at 50 µg/cm2: Spodoptera exigua, 168 h, % mortality, second instar larvae, 50 μg/cm^2 on artificial diet, five to seven days, 25° C., read-out: BAW Rating; for BAW Rating: Table 5, prophetic compounds subsequently exemplified, beet armyworm. The protocol:
(§1) Certain molecules disclosed in this document were tested against BAW, CEW and CL using procedures described in the following examples. In the reporting of the results, the “BAW & CEW & CL Rating Table” was used (See Table Section).
Bioassays on BAW were conducted using a 128-well diet tray assay. One to five second instar BAW larvae were placed in each well (3 mL) of the diet tray that had been previously filled with 1 mL of artificial diet to which 50 μg/cm^2 of the test compound (dissolved in 50 μL of 90:10 acetone-water mixture) had been applied (to each of eight wells) and then allowed to dry. Trays were covered with a clear self-adhesive cover, and held at 25° C., 14:10 light-dark for five to seven days. Percent mortality was recorded for the larvae in each well; activity in the eight wells was then averaged. The results are indicated in the tables entitled “Table 3: Assay Results Part 1” and “Table 4: Assay Results Part 2” (See Table Section).

The test system of test [2] is Cabbage Looper (CL) (Trichoplusia ni). The test can be described thus: Bioassay on cabbage looper (CL), 128-well diet tray assay. The conditions noted are these: for pest or weed control at 50 µg/cm2: Trichoplusia ni, 168 h, % mortality, second instar larvae, 50 μg/cm^2 on artificial diet, five to seven days, 25° C., read-out: CL Rating; for CL Rating: Table 5, prophetic compounds subsequently exemplified, cabbage looper. It counts as in vivo. As for the experimental part:
as §1
Bioassays on CL were conducted using a 128-well diet tray assay. One to five second instar CL larvae were placed in each well (3 mL) of the diet tray that had been previously filled with 1 mL of artificial diet to which 50 μg/cm^2 of the test compound (dissolved in 50 μL of 90:10 acetone-water mixture) had been applied (to each of eight wells) and then allowed to dry. Trays were covered with a clear self-adhesive cover, and held at 25° C., 14:10 light-dark for five to seven days. Percent mortality was recorded for the larvae in each well; activity in the eight wells was then averaged. The results are indicated in the table entitled “Table 4: Assay Results Part 2” (See Table Section).

With `COc1c(F)cc(C(/C=C/c2ccc(C(=O)NCC(=O)NCC(F)(F)F)c(Br)c2)C(F)(F)F)cc1F` (stereo not drawn) [FA8], the pest or weed control at 50 µg/cm2 in test [1] was 0 to 50%; in test [2], 50 to 100%.

Turning to `CC(C)(NC(=O)c1ccc(/C=C/C(c2cc(Cl)c(Cl)c(Cl)c2)C(F)(F)F)cc1Cl)C(=S)NCC(F)(F)F` (stereo not drawn) [FA9], the pest or weed control at 50 µg/cm2 in test [1] and in test [2] was 50 to 100% in each case.

In the case of `CC(C)(NC(=S)c1ccc(/C=C/C(c2cc(Cl)c(Cl)c(Cl)c2)C(F)(F)F)cc1Cl)C(=S)NCC(F)(F)F` (stereo not drawn) [FA10], the pest or weed control at 50 µg/cm2 in test [1] and in test [2] was 0 to 50% each time.

As for `CC(C)(NC(=O)c1ccc(/C=C/C(c2cc(Cl)c(Cl)c(Cl)c2)C(F)(F)F)cc1Br)C(=S)NCC(F)(F)F` (stereo not drawn) [FA11], the values for the pest or weed control at 50 µg/cm2 in test [1] and in test [2] were 0 to 50% and 50 to 100%, respectively.

In the case of `CC(C)(NC(=O)c1ccc(/C=C/C(c2cc(Cl)c(Cl)c(Cl)c2)C(F)(F)F)cc1C(F)(F)F)C(=S)NCC(F)(F)F` (stereo not drawn) [FA12], the pest or weed control at 50 µg/cm2 in test [1] and in test [2] was 50 to 100% in each case.

On to `CC(C)(NC(=O)c1ccc(/C=C/C(c2cc(Cl)c(Cl)c(Cl)c2)C(F)(F)F)cc1Br)C(=O)NCC#N` (stereo not drawn) [FA14], for which the pest or weed control at 50 µg/cm2 in test [1] and in test [2] was 50 to 100% each time.

In the case of `CC(C)(C)CNC(=O)C(C)(C)NC(=O)c1ccc(/C=C/C(c2cc(Cl)c(Cl)c(Cl)c2)C(F)(F)F)cc1Br` (stereo not drawn) [FA15], the pest or weed control at 50 µg/cm2 in test [1] and in test [2] was 50 to 100% each time.

As to `C=Cc1cc(/C=C/C(c2cc(Cl)c(Cl)c(Cl)c2)C(F)(F)F)ccc1C(=O)N[C@H](C)C(=O)NCC(F)(F)F` (stereo partly drawn) [FA17], the pest or weed control at 50 µg/cm2 in test [1] and in test [2] was 50 to 100% throughout.

Take `C=Cc1cc(/C=C/C(c2cc(Cl)c(Cl)c(Cl)c2)C(F)(F)F)ccc1C(=O)NCC(=O)NCC(F)(F)F` (stereo not drawn) [FA18]: the pest or weed control at 50 µg/cm2 in test [1] and in test [2] was 50 to 100% each time.

On to `CCC[C@@H](NC(=O)c1ccc(/C=C/C(c2cc(Cl)c(Cl)c(Cl)c2)C(F)(F)F)cc1Br)C(=O)NCC(F)(F)F` (stereo partly drawn) [FA19], for which the pest or weed control at 50 µg/cm2 in test [1] and in test [2] was 50 to 100% in each case.

Turning to `Cc1cc(C(/C=C/c2ccc(C(=O)N[C@H](C)C(=O)NCC(F)(F)F)c(C(F)(F)F)c2)C(F)(F)F)cc(Cl)c1Cl` (stereo partly drawn) [FA20], the pest or weed control at 50 µg/cm2 in test [1] and in test [2] was 50 to 100% each time.

With `C[C@@H](NC(=O)c1ccc(/C=C/C(c2cc(Cl)c(Br)c(Cl)c2)C(F)(F)F)cc1C(F)(F)F)C(=O)NCC(F)(F)F` (stereo partly drawn) [FA21], the pest or weed control at 50 µg/cm2 in test [1] and in test [2] was 50 to 100% throughout.

Consider `C[C@@H](NC(=O)c1ccc(/C=C/C(c2cc(Cl)c(Br)c(Cl)c2)C(F)(F)F)cc1Br)C(=O)NCC(F)(F)F` (stereo partly drawn) [FA22], for which the pest or weed control at 50 µg/cm2 in test [1] and in test [2] was 50 to 100% each time.

As to `CC(F)(F)CNC(=O)C(C)(C)NC(=O)c1ccc(/C=C/C(c2cc(Cl)c(Cl)c(Cl)c2)C(F)(F)F)cc1Br` (stereo not drawn) [FA23], the pest or weed control at 50 µg/cm2 in test [1] and in test [2] was 50 to 100% each time.

Take `O=C(CNC(=O)c1ccc(/C=C/C(c2cc(Cl)c(Cl)c(Cl)c2)C(F)(F)F)cc1I)NCC(F)(F)F` (stereo not drawn) [FA24]: the pest or weed control at 50 µg/cm2 in test [1] and in test [2] was 50 to 100% in each case.

As to `CCC[C@@H](NC(=O)c1ccc(/C=C/C(c2cc(Cl)c(Cl)c(Cl)c2)C(F)(F)F)cc1C)C(=O)NCC(F)(F)F` (stereo partly drawn) [FA25], the pest or weed control at 50 µg/cm2 in test [1] and in test [2] was 50 to 100% throughout.

Consider `C[C@@H](NC(=O)c1ccc(/C=C/C(c2cc(Br)c(Cl)c(Br)c2)C(F)(F)F)cc1Br)C(=O)NCC(F)(F)F` (stereo partly drawn) [FA26], for which the pest or weed control at 50 µg/cm2 in test [1] and in test [2] was 50 to 100% in each case.

`C[C@@H](NC(=O)c1ccc(/C=C/C(c2cc(Br)c(Cl)c(Br)c2)C(F)(F)F)cc1C(F)(F)F)C(=O)NCC(F)(F)F` (stereo partly drawn) [FA27]: the pest or weed control at 50 µg/cm2 in test [1] and in test [2] was 50 to 100% throughout.

For the molecule `Cc1cc(/C=C/C(c2cc(Cl)c(Cl)c(Cl)c2)C(F)(F)F)cc(C)c1C(=O)N[C@H](C)C(=O)NCC(F)(F)F` (stereo partly drawn) [FA28], the pest or weed control at 50 µg/cm2 in test [1] and in test [2] was 50 to 100% in each case.

Turning to `C[C@@H](NC(=O)c1ccc(/C=C/C(c2ccc(Cl)c(Cl)c2)C(C)(F)F)cc1Br)C(=O)NCC(F)(F)F` (stereo partly drawn) [FA29], the pest or weed control at 50 µg/cm2 in test [1] and in test [2] was 50 to 100% in each case.

Consider `C[C@@H](NC(=O)c1ccc(/C=C/C(c2ccc(OC(F)(F)F)c(Cl)c2)C(F)(F)F)cc1Br)C(=O)NCC(F)(F)F` (stereo partly drawn) [FA30], for which the pest or weed control at 50 µg/cm2 in test [1] and in test [2] was 50 to 100% throughout.

In the case of `CCc1cc(Cl)cc(C(/C=C/c2ccc(C(=O)N[C@H](C)C(=O)NCC(F)(F)F)c(Br)c2)C(F)(F)F)c1` (stereo partly drawn) [FA31], the pest or weed control at 50 µg/cm2 in test [1] and in test [2] was 50 to 100% each time.

On to `CC(C)[C@@H](NC(=O)c1ccc(/C=C/C(c2cc(Cl)c(Cl)c(Cl)c2)C(F)(F)F)cc1Br)C(=O)NCC(F)(F)F` (stereo partly drawn) [FA32], for which the pest or weed control at 50 µg/cm2 in test [1] and in test [2] was 50 to 100% throughout.

As for `CC(C)[C@@H](NC(=O)c1ccc(/C=C/C(c2cc(Cl)c(Cl)c(Cl)c2)C(F)(F)F)cc1C(F)(F)F)C(=O)NCC(F)(F)F` (stereo partly drawn) [FA33], the pest or weed control at 50 µg/cm2 in test [1] and in test [2] was 50 to 100% throughout.

Turning to `O=C(CNC(=O)c1ccc(/C=C/C(c2cccc(C(F)(F)F)c2)C(F)(F)F)cc1Br)NCC(F)(F)F` (stereo not drawn) [P1], the “BAW Rating” value in test [1] is on record as “A (50-100)”. Further, the “CL Rating” value in test [2] was “A (50-100)”.

In the case of `CSc1cc(/C=C/C(c2cc(Cl)c(F)c(Cl)c2)C(F)(F)F)ccc1C(=O)NCC(=O)NCC(F)(F)F` (stereo not drawn) [P12], the “BAW Rating” value in test [1] is given as “A (50-100)”. In addition, the “CL Rating” value in test [2] was “A (50-100)”.

In the case of `Fc1c(Cl)cc(C(/C=C/c2ccc(C(=S)NCC(=S)NCC(F)(F)F)c(Br)c2)C(F)(F)F)cc1Cl` (stereo not drawn) [P14], the “BAW Rating” value in test [1] is “B (More than 0-Less than 50)”. In addition, in test [2], the “CL Rating” value is recorded as “A (50-100)”.

For `Cc1cc(/C=C/C(c2cc(Cl)c(Cl)c(Cl)c2)C(F)(F)F)ccc1C(=S)NCC(=S)NCC(F)(F)F` (stereo not drawn) [P15], the “BAW Rating” value in test [1] is recorded as “A (50-100)”. In test [2], the “CL Rating” value is on record as “A (50-100)”.

Turning to `C[C@@H](NC(=O)c1ccc(/C=C/C(c2ccc(F)c(F)c2F)C(F)(F)F)cc1Br)C(=O)NCC(F)(F)F` (stereo partly drawn) [P82], the “BAW Rating” value in test [1] is given as “A (50-100)”. Moreover, the “CL Rating” value in test [2] is reported as “A (50-100)”.

As to `C[C@@H](NC(=O)c1ccc(/C=C/C(c2ccc(F)c(F)c2F)C(F)(F)F)cc1C(F)(F)F)C(=O)NCC(F)(F)F` (stereo partly drawn) [P84], the “BAW Rating” value in test [1] is given as “A (50-100)”. In addition, the “CL Rating” value in test [2] was “A (50-100)”.

Turning to `C[C@@H](NC(=O)c1ccc(/C=C/C(c2cc(Cl)c(Cl)cc2Cl)C(F)(F)F)cc1Br)C(=O)NCC(F)(F)F` (stereo partly drawn) [P156], the “BAW Rating” value in test [1] is recorded as “A (50-100)”. Further, in test [2], the “CL Rating” value is given as “A (50-100)”.

Turning to `C[C@@H](NC(=O)c1ccc(/C=C/C(c2cccc(OC(F)(F)F)c2)C(F)(F)F)cc1Br)C(=O)NCC(F)(F)F` (stereo partly drawn) [P226], the “BAW Rating” value in test [1] is “A (50-100)”. For the same molecule, the “CL Rating” value in test [2] is on record as “A (50-100)”.

Consider `C[C@@H](NC(=O)c1ccc(/C=C/C(c2cccc(OC(F)(F)F)c2)C(F)(F)F)cc1C(F)(F)F)C(=O)NCC(F)(F)F` (stereo partly drawn) [P228], for which the “BAW Rating” value in test [1] is listed as “A (50-100)”. Further, the “CL Rating” value in test [2] is reported as “A (50-100)”.
